#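 All cell lines were grown in 96-well plates and treated with compound for 48 hours. GI50 = concentration required for 50% inhibition of growth. Definition used: TGI = concentration required for complete inhibition of growth.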
# Key:
# Assay in all cases: NCI anticancer screen, dose series, 48 h
# [1] = tested on: 786-0 renal
# [2] = tested on: A498 renal
# [3] = tested on: A549 NSCLC
# [4] = tested on: ACHN renal
# [5] = tested on: BT-549 breast
# [6] = tested on: CAKI-1 renal
# [7] = tested on: COLO 205 colon
# [8] = tested on: DU-145 prostate
# [9] = tested on: EKVX NSCLC
# [10] = tested on: HCC-2998 colon
# [11] = tested on: HCT-116 colon
# [12] = tested on: HCT-15 colon
# [13] = tested on: HL-60(TB) leukemia
# [14] = tested on: HOP-62 NSCLC
# [15] = tested on: HOP-92 NSCLC
# [16] = tested on: HS 578T breast
# [17] = tested on: HT29 colon
# [18] = tested on: IGROV1 ovarian
# [19] = tested on: K-562 leukemia
# [20] = tested on: KM12 colon
# [21] = tested on: LOX IMVI melanoma
# [22] = tested on: M14 melanoma
# [23] = tested on: MALME-3M melanoma
# [24] = tested on: MCF7 breast
# [25] = tested on: MDA-MB-231 breast
# [26] = tested on: MDA-MB-435
# [27] = tested on: MOLT-4 leukemia
# [28] = tested on: NCI-H226 lung
# [29] = tested on: NCI-H23 lung
# [30] = tested on: NCI-H460 lung
# [31] = tested on: NCI-H522 lung
# [32] = tested on: NCI/ADR-RES ovarian
# [33] = tested on: OVCAR-3 ovarian
# [34] = tested on: OVCAR-4 ovarian
# [35] = tested on: OVCAR-5 ovarian
# [36] = tested on: OVCAR-8 ovarian
# [37] = tested on: PC-3 prostate
# [38] = tested on: RXF 393 renal
# [39] = tested on: SF-268 CNS
# [40] = tested on: SF-295 CNS
# [41] = tested on: SF-539 CNS
# [42] = tested on: SK-MEL-2 melanoma
# [43] = tested on: SK-MEL-28 melanoma
# [44] = tested on: SK-MEL-5 melanoma
# [45] = tested on: SK-OV-3 ovarian
# [46] = tested on: SN12C renal
# [47] = tested on: SNB-19 CNS
# [48] = tested on: SNB-75 CNS
# [49] = tested on: SR leukemia
# [50] = tested on: SW-620 colon
# [51] = tested on: T-47D breast
# [52] = tested on: TK-10 renal
# [53] = tested on: U251 CNS
# [54] = tested on: UACC-257 melanoma
# [55] = tested on: UACC-62 melanoma
# [56] = tested on: UO-31 renal
smiles,measurement,setting,value
COc1ccc2c(c1)C(=O)c1c-2n(CCCCl)c(=O)c2cc(N(C)C)ccc12,GI50,[1],33.1 µM
same,TGI,[1],> 100 µM
same,GI50,[2],95.6 µM
same,TGI,[2],> 100 µM
same,GI50,[3],> 100 µM
same,TGI,[3],> 100 µM
same,GI50,[4],36 µM
same,TGI,[4],> 100 µM
same,GI50,[5],26 µM
same,TGI,[5],> 100 µM
same,GI50,[6],94.6 µM
same,TGI,[6],> 100 µM
same,GI50,[7],> 100 µM
same,TGI,[7],> 100 µM
same,GI50,[8],> 100 µM
same,TGI,[8],> 100 µM
same,GI50,[9],> 100 µM
same,TGI,[9],> 100 µM
same,GI50,[10],> 100 µM
same,TGI,[10],> 100 µM
same,GI50,[11],43.9 µM
same,TGI,[11],> 100 µM
same,GI50,[12],> 100 µM
same,TGI,[12],> 100 µM
same,GI50,[13],> 100 µM
same,TGI,[13],> 100 µM
same,GI50,[14],26.6 µM
same,TGI,[14],69 µM
same,GI50,[15],3.42 µM
same,TGI,[15],23.4 µM
same,GI50,[16],26.8 µM
same,TGI,[16],> 100 µM
same,GI50,[17],> 100 µM
same,TGI,[17],> 100 µM
same,GI50,[18],33 µM
same,TGI,[18],> 100 µM
same,GI50,[19],> 100 µM
same,TGI,[19],> 100 µM
same,GI50,[20],3.56 µM
same,TGI,[20],> 100 µM
same,GI50,[21],99.1 µM
same,TGI,[21],> 100 µM
same,GI50,[22],> 100 µM
same,TGI,[22],> 100 µM
same,GI50,[23],63.8 µM
same,TGI,[23],> 100 µM
same,GI50,[24],28.6 µM
same,TGI,[24],> 100 µM
same,GI50,[25],21.8 µM
same,TGI,[25],81 µM
same,GI50,[26],81.8 µM
same,TGI,[26],> 100 µM
same,GI50,[27],> 100 µM
same,TGI,[27],> 100 µM
same,GI50,[28],54.7 µM
same,TGI,[28],> 100 µM
same,GI50,[29],> 100 µM
same,TGI,[29],> 100 µM
same,GI50,[30],73 µM
same,TGI,[30],> 100 µM
same,GI50,[31],18.9 µM
same,TGI,[31],> 100 µM
same,GI50,[32],> 100 µM
same,TGI,[32],> 100 µM
same,GI50,[33],> 100 µM
same,TGI,[33],> 100 µM
same,GI50,[34],62.9 µM
same,TGI,[34],> 100 µM
same,GI50,[35],> 100 µM
same,TGI,[35],> 100 µM
same,GI50,[36],42.5 µM
same,TGI,[36],> 100 µM
same,GI50,[37],34.5 µM
same,TGI,[37],> 100 µM
same,GI50,[38],25.5 µM
same,TGI,[38],90.7 µM
same,GI50,[39],33.3 µM
same,TGI,[39],> 100 µM
same,GI50,[40],> 100 µM
same,TGI,[40],> 100 µM
same,GI50,[41],12.4 µM
same,TGI,[41],47.4 µM
same,GI50,[42],> 100 µM
same,TGI,[42],> 100 µM
same,GI50,[43],> 100 µM
same,TGI,[43],> 100 µM
same,GI50,[44],11.2 µM
same,TGI,[44],34.6 µM
same,GI50,[45],36.2 µM
same,TGI,[45],> 100 µM
same,GI50,[46],49.8 µM
same,TGI,[46],> 100 µM
same,GI50,[47],56.4 µM
same,TGI,[47],> 100 µM
same,GI50,[48],21.3 µM
same,TGI,[48],69.2 µM
same,GI50,[49],19.9 µM
same,TGI,[49],> 100 µM
same,GI50,[50],> 100 µM
same,TGI,[50],> 100 µM
same,GI50,[51],34.6 µM
same,TGI,[51],> 100 µM
same,GI50,[52],30.9 µM
same,TGI,[52],> 100 µM
same,GI50,[53],23.1 µM
same,TGI,[53],84.2 µM
same,GI50,[54],43 µM
same,TGI,[54],> 100 µM
same,GI50,[55],41 µM
same,TGI,[55],> 100 µM
same,GI50,[56],> 100 µM
same,TGI,[56],> 100 µM

# Reference: PubChem BioAssay (NCI)
